From patent US20250281478A1, “METHODS FOR PREVENTING OR TREATING KIDNEY DISEASES” (JEAMOON BEIJING CO., LTD., priority 2022, published 2025)

Tests used:
[1] = system: mice with adenine-induced renal failure; experiment: Survival of mice with adenine-induced renal failure; type: in vivo, C57BL/6N mice; conditions: for Survival Rate (%): started 1 week after start of continued 0.25% adenine diet, end of experiment; for Count after Drug Administration (surviving mice): 12 at enrollment
Experimental: • 1. Experimental Animals: C57BL/6N, 8 weeks old, SPF grade, male. • 2. Experimental Drugs: • LY2922470 (Shanghai Taoshu Biotechnology Co., Ltd.) • TAK875 (Shanghai Taoshu Biotechnology Co., Ltd.)
1) Preparation of TAK875: A total of 27 mg of TAK875 powder was accurately weighed using an analytical balance and dissolved in 9 mL of 0.8% CMC-Na solution. The mixture was sonicated for 5 minutes to form a 3 mg/mL white suspension. The suspension was stored at 4° C. for later use.
2) Preparation of LY2922470: A total of 80 mg of LY2922470 yellow crystals was added to 200 μL of DMSO to form a clear yellow solution. The solution was gradually added in batches to 10 mL of 0.8% CMC-Na solution. After heating and sonication for 5 hours, an 8 mg/mL white suspension of LY2922470 was obtained. The suspension was stored at 4° C. for later use.
Eight-week-old male C57BL/6N mice were acclimatized for one week and then randomly divided into six groups. Except for the control group, all mice were fed a 0.25% adenine-containing diet for modelling. The control group received a normal diet. The mice had free access to food. One week after model induction, mice in each group were orally administered the corresponding drug once daily in the afternoon, according to their group assignment. The control group and the model group received vehicle under a same condition. During the treatment period, the adenine-containing diet was continued. Mouse survival was monitored until the end of the experiment.

[2] = system: TGF-β1-induced HK-2 cells; experiment: RT-PCR of fibrosis markers in TGF-β1-induced HK-2 cells; type: cell-based, human; conditions: 10 ng/ml TGF-β1 + LY2922470 10, 50, 500 nM, 48 hours, FIG. 7
Experimental: • Group A: Control • Group B: TGF-β1 (10 ng/ml) • Group C: TGF-β1 (10 ng/ml)+LY (10 nM) • Group D: TGF-β1 (10 ng/ml)+LY (50 nM) • Group E: TGF-1 (10 ng/ml)+LY (500 nM)
(§1) HK-2 cells were cultured in MEM supplemented with 10% FBS and 1% penicillin-streptomycin solution. The HK-2 cells were taken from liquid nitrogen and quickly thawed in a 37° C. water bath, gently agitated to thaw the cryopreservation medium. After thawing, the cell suspension was transferred to a centrifuge tube containing 3 mL of culture medium and centrifuged at 1000 rpm for 5 min at room temperature to collect the cells. The supernatant was discarded. The cell pellet was resuspended in complete medium (10% FBS) and seeded into culture dishes. The cells were gently pipetted to ensure uniform distribution and incubated at 37° C. with 5% CO2 and saturated humidity.
HK-2 cells in a logarithmic growth phase and with good viability were seeded into 24-well plates at a density of 1×10^5 cells/well. Once the cells reached 40-50% confluence, treatments were applied according to the grouping described above: Group A: HK-2 cells were cultured normally; Group B was treated with 10 ng/ml TGF-β1; Group C was treated with 10 ng/ml TGF-β1 and 10 nM LY2922470; Group D was treated with 10 ng/ml TGF-β1 and 50 nM LY2922470; and Group E was treated with 10 ng/ML TGF-β1 and 500 nM LY2922470. […]

[3] = system: high glucose-induced HK-2 cells; experiment: RT-PCR of fibrosis markers in high glucose-induced HK-2 cells; type: cell-based, human; conditions: 25 mM D-glucose + LY2922470 10, 50, 500 nM, 48 hours, FIG. 8
Experimental: • Group A: Control • Group B: HG (25 mM) • Group C: HG (25 mM)+LY (10 nM) • Group D: HG (25 mM)+LY (50 nM) • Group E: HG (25 mM)+LY (500 nM)
as §1
Once cells reached 40%-50% confluency, they were treated according to the grouping described above: Group A received normal HK-2 culture; Group B was treated with 25 mM D-glucose (high glucose); Group C was treated with 25 mM D-glucose and 10 nM LY2922470; Group D was treated with 25 mM D-glucose and 50 nM LY2922470; and Group E was treated with 25 mM D-glucose and 500 nM LY2922470. After 48 hours of culture, samples were collected from each group for RT-PCR analysis.

CC#C[C@@H](CC(=O)O)c1ccc(OCc2ccc(CN3CCCc4cccc(OC)c43)s2)cc1 [LY2922470]
Survival Rate (%) ([1]; LY2922470 10 mg/kg p.o. QD): 0% | Count after Drug Administration (surviving mice) ([1]; LY2922470 10 mg/kg p.o. QD): 0 | Day of adenine feeding by which all mice had died ([1]; LY2922470 10 mg/kg p.o. QD, deaths began on day 20): ≤ 27 days | Survival Rate (%) ([1]; LY2922470 30 mg/kg p.o. QD, 30 mg/kg): 100% | Survival Rate (%) ([1]; LY2922470 30 mg/kg p.o. QD, listed as LY): 100% | Count after Drug Administration (surviving mice) ([1]; LY2922470 30 mg/kg p.o. QD): 12 | Final survival rate relative to the TAK875 group ([1]; LY2922470 30 mg/kg vs TAK875 30 mg/kg): double | Survival Rate (%) ([1]; LY2922470 60 mg/kg p.o. QD, listed as LY): 50% | Count after Drug Administration (surviving mice) ([1]; LY2922470 60 mg/kg p.o. QD): 6 | Dose with optimal effect (survival) ([1]; from Table 1 survival data, p.o.): 30 mg/kg/day | Expression level of Fibronectin (RT-PCR) compared to the TGF-β1 group [2]: dose-dependent decrease | Expression level of α-SMA (RT-PCR) compared to the TGF-β1 group [2]: dose-dependent decrease | Expression level of Fibronectin (RT-PCR) compared to the high-glucose group [3]: reduced | Expression level of α-SMA (RT-PCR) compared to the high-glucose group [3]: reduced
